Values of other authors as cited in paper PMC2096654 (Purinergic Signalling, 2006).

Target: T1, human A3 adenosine receptor (Homo sapiens, UniProt P0DMS8)
T1 sequence (P0DMS8 1-318): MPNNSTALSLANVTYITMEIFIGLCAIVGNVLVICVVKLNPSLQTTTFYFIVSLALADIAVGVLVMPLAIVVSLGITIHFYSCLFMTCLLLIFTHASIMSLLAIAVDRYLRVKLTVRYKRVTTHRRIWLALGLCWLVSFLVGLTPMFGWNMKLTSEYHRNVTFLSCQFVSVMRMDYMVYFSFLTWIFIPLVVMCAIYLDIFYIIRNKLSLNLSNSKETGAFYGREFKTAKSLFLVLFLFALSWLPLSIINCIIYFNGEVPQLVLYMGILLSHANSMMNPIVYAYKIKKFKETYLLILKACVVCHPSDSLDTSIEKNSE
Details: reference agonist

Q: With `CNC(=O)[C@H]1O[C@@H](n2cnc3c(NCc4cccc(I)c4)nc(Cl)nc32)[C@H](O)[C@@H]1O` [Cl-IB-MECA, 2-chloro-N^6-(3-iodobenzyl)-5′methylcarboxamidoadenosine] as the compound, how does the “agonist behaviour at A3 receptor” value read?
A: The value was “full agonist”.
